Legend:
[1] = Photocleavage of BODIPY-CAB and photorelease of CAB in solution, determined by HPLC; format: physicochemical
Description: FIG. 4. HPLC spectra of CAB (10^−4 M), PtTPBP (10^−5 M), BODIPY-CAB (10^−4 M), BODIPY-CAB (10^−4 M) with 530 nm irradiation (44 mW/cm^2) for 15 s under N2 atmosphere, the mixture of BODIPY-CAB (10^−4 M) and PtTPBP (10^−5 M) with 625 nm irradiation (44 mW/cm^2) for 15 s under N2 atmosphere, the mixture of BODIPY-CAB (10^−4 M) and PtTPBP (10^−5 M) without irradiation under N2 atmosphere, and BODIPY-CAB (10^−4 M) with 625 nm irradiation (44 mW/cm^2) for 15 s under N2 atmosphere. The detection wavelength was 260 nm. A small amount of toluene, whose peak was located at ˜8.7 min, was used to increase the solubility of PtTPBP. The yellow arrows indicate the signal of CAB; the red arrows indicate the signal of BODIPY-CAB; and the green arrows indicate the signal of PtTPBP.
FIG. 5. Photocleavage rate of the prodrug (BODIPY-CAB), as determined by HPLC (detected at 540 nm), after irradiation with 625 nm LED light at 44 mW/cm^2. The mixed solution of BODIPY-CAB (10^−4 M) and PtTPBP (10^−5 M, […] or 0 M) was protected under nitrogen (N2) or exposed in the air, and then irradiated for different time periods in the mixed solvents of dichloromethane (DCM) and methanol (1:9, v/v). The solution (50 μL) was then analyzed by HPLC to measure the concentration of BODIPY-CAB. Data are means±SD, n=3.
FIG. 6. Photorelease of the free drug (CAB), as determined by HPLC (detected at 260 nm), after irradiation with 625 nm LED light at 44 mW/cm^2. The mixed solution of BODIPY-CAB (10^−4 M) and PtTPBP ([…], 5×10^−6 M, 10^−6 M or 0 M) was protected under nitrogen (N2) or exposed in the air, and then irradiated for different time periods in the mixed solvents of dichloromethane (DCM) and methanol (1:9, v/v). The solution (50 μL) was then analyzed by HPLC to measure the concentration of CAB. Data are means f SD, n=3.
The intermediates and the final product were characterized by proton nuclear magnetic resonance (^1H NMR) spectra (FIG. 12-FIG. 15). The absorption and emission peaks of BODIPY-CAB were located at the wavelength of 543 nm and 567 nm, respectively (FIG. 3). To confirm whether the BODIPY prodrug could be sensitized by PtTPBP and could further be cleaved to release the drug, high performance liquid chromatography (HPLC) was utilized to monitor the generation of CAB. […] After addition of photosensitizer PtTPBP, the mixture solution of PtTPBP and BODIPY-CAB was irradiated with 625 nm light for 15 sec.
Furthermore, the photocleavage of BODIPY-CAB was investigated with different ratios of BODIPY-CAB and PtTPBP upon 625 nm light irradiation. […] When the concentration of photosensitizer was decreased, the photocleavage of BODIPY-CAB slowed down. […] Moreover, as O2 can quench the triplet excited state of PtTPBP, the prodrug cannot be cleaved efficiently in the presence of O2.

[2] = literature ref. [10]; cited from earlier work

Structure (SMILES) | generation of CAB (HPLC) ([1]; 530 nm (44 mW/cm^2), 15 s, no photosensitizer, N2) | generation of CAB (HPLC) ([1]; 625 nm (44 mW/cm^2), 15 s, with PtTPBP, N2) | generation of CAB (HPLC) ([1]; 625 nm, 15 s, in the absence of PtTPBP, N2) | rate of photocleavage and photorelease ([1]; 625 nm, with PtTPBP, in the air atmosphere (O2)) | prodrug remained in the solution ([1]; BODIPY-CAB:PtTPBP 100:1, 625 nm LED 44 mW/cm^2, 30 s, N2) | photocleavage of the prodrug ([1]; BODIPY-CAB:PtTPBP 100:10, 625 nm LED 44 mW/cm^2, 15 s, N2) | free drug CAB released ([1]; BODIPY-CAB:PtTPBP 100:10, 625 nm LED 44 mW/cm^2, 15 s, N2, DCM/methanol 1:9) | generation of CAB (HPLC) ([1]; mixture with PtTPBP not irradiated, N2) | cytotoxicity [2]
CC1=C(I)C(C)=[N+]2C1=C(COC(=O)CCCc1ccc(N(CCCl)CCCl)cc1)c1c(C)c(I)c(C)n1[B-]2(C)C [BODIPY-CAB] | leads to the release of CAB | new peak located at ˜11.2 min was appeared | did not generate CAB | dramatically deceased rate of photocleavage and photorelease | 59.6% | almost cleaved completely | 41.7% | did not generate CAB | –
[Pt+2].c1ccc(-c2c3nc(c(-c4ccccc4)c4[n-]c(c(-c5ccccc5)c5nc(c(-c6ccccc6)c6[n-]c2c2ccccc62)-c2ccccc2-5)c2ccccc42)-c2ccccc2-3)cc1 [PtTPBP, platinum (II) tetraphenyltetrabenzoporphyrin] | – | – | – | – | – | – | – | – | minimal
